# Source: patent US8512941B2, “Biological material and methods and solutions for preservation thereof” (Core Dynamics Limited, priority 2004, dated 2013)
# “And” between values parts separate entries of the source, which are not always exact repeats. Equal entries are not always repeated.
# Key:
# [1] = tested on: Red blood cells (RBC); assay: Hypothermic preservation of whole blood at 4° C.: cell count, MCV, ATP bioluminescence; assay type: cell-based; settings: on arrival, 15 minutes after adding, 1 week later, versus PBS bag
# Procedure: Whole blood units, 2 days old, 500 ml each, were received from the Israeli blood services. 2 ml PBS were added to one bag and 2 ml PBS comprising 0.236 gram GTE (Taiyo, China) were added to the other. This GTE contains ˜80% catechins which contained the at least the following polyphenols: 48% EGCG, 10.8% epigallocatechin (EGC), 1.4% DL-Catechin (DL-C; (2S,3R)-2-(3,4-Dihydroxyphenol)-3,4-dihydro-1(2H)-benzopyran-3,5,7-triol), 5.6% epicatechin (EC). 2.6% gallocatechin gallate (GCG) and 14.5% epicatechin gallate (ECG). The final concentration of GTE was 0.4725 mg/ml. During delivery and storage the blood was maintained in a refrigerator at 4° C. storage.
# 1 ml samples were taken from each bag at the following times: (a) when the units arrived, (b) 15 minutes after adding PBS of EGCG and (c) 1 week later. The samples were counted and the mean cell value was measured using the Pentra 60 (ABX, France).
# ATP content of each sample was assayed using ATP Bioluminescence Kit CLS II (Roche, Switzerland) according to the manufacturer's manual. In this assay, light emission is in direct proportion to the amount of ATP in the sample.
# [2] = tested on: Red blood cells (RBC); assay: Post-thaw RBC hemolysis (cyanmethemoglobin assay, Drabkin's solution, Formula I); assay type: cell-based; settings: 4.12 mM EGCG in 20% (w/v) Dextran 40, 0.8% NaCl; 1890° C./min; 24 hours at −80° C.
# Procedure: In the following Examples, unless specifically said otherwise, free hemoglobin levels detection was done by using the cyanmethemoglubin assay using Drabkin's solution (Sigma, USA) and reading the absorbance at 540 nm using an ELISA reader (Bio Tek Instruments, USA). Hemoglobin (Hb) concentration was measured in the supernatant and in the pellet, and the hemolysis percentage was calculated using Formula I: […]
# Freezing solution was mixed in a 1:1 ration with packed red blood cells.
# RBC were frozen at a volume of 2.5 ml in a 16 mm diameter test tube (Manara, Israel) using the MTG freezing device. […] The test tubes were rotated during freezing at 60 rounds per minute. After freezing, samples were stored for 24 hours in a −80° C. freezer (Forma, USA). Thawing was performed by plunging the samples in a water bath at 37° C. for a period of time under a minute, when the samples visually appears to have been completely thawed.
# Samples were rotated at 60 RPM.
# [3] = tested on: Red blood cells (RBC); assay: Freezing RBC without thermal gradients at varying NaCl concentrations; assay type: cell-based; settings: for Cell Number, Thawed / MCV, Thawed: 24 h at −80° C.
# Procedure: Samples volume was 1 ml. The Samples were maintained for at least 10 min at 5° C. and then transferred to a metal plate in a conventional freezing device (Forma, USA) at −80° C. for a period of 24 h. […] The percentage shown, is the thawed samples as compared with a fresh sample.
# [4] = tested on: Mononuclear cells (MNC) derived from umbilical cord blood (UCB); assay: CD3 expression by FACS of lyophilized, rehydrated MNC; assay type: cell-based; settings: 0.1M Trehalose in PBS
# Procedure: (§1) C. In this example a freezing solution composed of 0.1M Trehalose and either 0.47 mg/ml EGCG (×2.5) or 1.89 mg/ml EGCG (×10) in PBS was used. Samples volume was 2.5 ml and samples were frozen as described above and then lyophilized. After being in the lyophilizer for 72 h, the samples were taken out and rehydrated with 2.4 ml of DDW at 37° C. After rehydration samples were assayed for CD3 using FACS (fluorescent-activated cell sorter) in accordance with the method described in Huiling et al. The Journal of Immunology 2003, 171: 4824-4829, with minor modifications.
# [5] = tested on: Red blood cells (RBC); assay: RBC survival (cell count) after freezing/thawing or lyophilizing/rehydrating at 2.5 ml; assay type: cell-based; settings: for RBC survival, 1A Thawed / RBC survival, 2A Thawed: not lyophilized; for RBC survival, 1A Thawed: percentage of total fresh cells counted; for RBC survival, 2A Thawed: frozen at 2,000° C./min
# Procedure: Red blood cells (RBC) were separated from whole blood received from the Israeli Blood Bank. The blood was centrifuged for 10 minutes at 1500 g and the plasma was discarded. […] Afterwards the supernatant was discarded, and an equal volume of cryopreservation solution selected from the solutions in Table I was added to the packed RBC. Different volumes (2.5-50 ml) of the RBC suspension were transferred to a 16-25 mm diameter glass test tube ([…], Israel). The experiment of freezing 200 ml of RBC suspension was done in a 2000 ml freezing bag (Baxter-Fenwal, USA). Samples were then either frozen and thawed in a water bath at 37° C. or lyophilized and rehydrated with double distilled water (DDW) at 37° C. Glass test tubes containing RBC were frozen in a modified MTG freezing apparatus, as described in WO 03/020874 (manufactured by IMT, Israel). The thermal gradient in the cooling unit was set to 5.5° C./mm or 10.5° C./mm or 15.5° C./mm (as detailed below) with final temperatures of -50° C., -100° C. or -150° C. […] During freezing the test tubes that contained only 2.5 ml samples were rotated at a rate of 56 rpm. Subsequent to freezing, biological material was taken from each test tube to test for cell viability. Lyophilization was performed in a commercial lyophilizer (Labconco, USA) with a condenser temperature of -82° C. for 72 hours. The biological material was is rehydrated by adding DDW to reach the sample's original volume. Frozen (but not lyophilized) material was thawed by immersion in a water bath at 37° C. for until it melted. Melting was observed visually. Cells were counted using the […] 60 cell counter (ABX, France), in accordance with the manufacturer's manual. This device provides a complete cell count (CBC) that includes parameters such as: cell number, hematocrit, mean cell volume, hemoglobin, etc. […] In these experiments the cell suspension volume was 2.5 ml.
# [6] = tested on: Red blood cells (RBC); assay: Freeze-dried and rehydrated RBC: cell number, MCV, hemolysis; assay type: cell-based; settings: for % Hemolysis in Lyo cells / MCV, Lyo / number of Cells, Lyo: lyophilized and rehydrated
# Procedure: Freezing was performed as described in Example 5A. After freezing, samples were transferred to a commercial lyophilizer (Labconco, USA). Samples were lyophilized for 72 hours, after which rehydration was performed by adding 2.4 ml double distilled water at 37° C. back to the samples. After rehydration samples were counted and mean cell volume (MCV) was measured using the Pentra 60 (ABX, France) automatic cell counter. Free hemoglobin levels were measured as described above and the hemolysis percentage was calculated using Formula I.
# [7] = tested on: Red blood cells (RBC); assay: Osmotic fragility of RBC; assay type: cell-based; settings: 0.9 mg/ml EGCG, 20% dextran 40 kD, 0.8% NaCl
# Procedure: The control group was whole blood. Portions of each of the EGCG supplemented and control were exposed to different sodium chloride concentrations of: 0.1, 0.2, 0.3, 0.4, 0.5, 0.6, 0.7, 0.8 and 0.9% (w/v).
# Free hemoglobin was measured as described above and the hemolysis percentage was calculated using Formula I. The results of this experiment are shown in FIG. 8.
# [8] = tested on: Mononuclear cells (MNC) derived from umbilical cord blood (UCB); assay: MNC proliferation assay based on thymidine incorporation; assay type: cell-based; settings: FIG. 9; cells lyophilized at ×10 EGCG (4.12 mM) versus ×2.5 EGCG (1.03 mM); 48 hour incubation
# Procedure: In addition, a cell proliferation assay was performed. In brief, the hydrated cells were incubated for 48 hour after which a proliferation assay based on thymidine incorporation was carried out (Promega, USA). The results of the proliferation assay are depicted in FIG. 9, wherein the proliferation index of the cells is depicted as a function of their number at initial plating. […] In addition, as the cells' initial plating number increases so does the proliferation index. The almost linear proportion shown for one of the ×10 EGCG samples is similar to that observed with fresh cells
# [9] = tested on: Mononuclear cells (MNC) derived from umbilical cord blood (UCB); assay: MNC viability by membrane integrity (SYBR14/PI) after freeze thawing or freeze drying; assay type: cell-based; settings: for Mambrane integrity (%): 0.1M Trehalose in PBS
# Procedure: Blood was separated on ficoll-paque gradient for 30 minutes at 1000 g. Afterwards the mononuclear layer was drawn out and washed twice in PBS for 10 minutes at 200 g. To each pellet one of the following freezing solutions was added:
# 2.5 ml of cell suspension were put in a 16 mm diameter glass test tube (Manara, Israel) and frozen using the MTG freezing apparatus (IMT, Israel). The temperature gradients were 1.5° C./mm and 0.428° C./mm, velocity was 0.2 mm/sec resulting in a cooling rate of 18° C./min and 5.1° C./min respectively. The first cooling rate was applied until the seeding temperature was reached. The samples were rotated at 56 rounds per minute (RPM).
# After freezing samples were plunged into liquid nitrogen (LN), and then samples were either thawed at 37° C. in a water bath or put in a commercial lyophilizer (Labconco, USA) with a condenser temperature of −80° C. After drying the cells were rehydrated with DDW at 37° C.
# Cells were counted using the PENTRA 60 cell counter, as described above. viability assessments were performed by evaluating the cells' membrane integrity using SYBR14 plus Propidium Iodide (PI) (Molecular Probes, USA) live/dead fluorescent staining. These stains are nucleic acid stains, SYBR14 is a membrane permeable molecule and PI can enter the cell only if the membrane is damaged.
# as §1
# Membrane integrity of the samples was evaluated before and after rehydration using SYBR 14 and PI (Molecular Probes, USA).
# [10] = tested on: RBC; settings: introduction of trehalose into fresh RBC, not frozen or freeze-dried; Satpathy et al. 2004; cited from earlier work
smiles,measurement,setting,value
"O=C(O[C@@H]1Cc2c(O)cc(O)cc2O[C@@H]1c1cc(O)c(O)c(O)c1)c1cc(O)c(O)c(O)c1 [EGCG, Epigallocatechin gallate]",Cells counts,[1],essentially the same
same,MCV,[1],essentially the same
same,Post thaw hemolysis,[2],3.5%
same,"Cell Number, % thawed compared with fresh",[3]; NaCl 0.6%,100.00%
same,"MCV, % thawed compared with fresh",[3]; NaCl 0.6%,120.22%
same,"Cell Number, Thawed",[3]; NaCl 0.6%,4.12 10^9/ml
same,"MCV, Thawed",[3]; NaCl 0.6%,107 μm^3
same,"Cell Number, Fresh",[3]; NaCl 0.6%,4.12 10^9/ml
same,"Cell Number, % thawed compared with fresh",[3]; NaCl 0.7%,100.00%
same,"MCV, % thawed compared with fresh",[3]; NaCl 0.7%,124.44%
same,"Cell Number, Thawed",[3]; NaCl 0.7%,4.27 10^9/ml
same,"MCV, Thawed",[3]; NaCl 0.7%,112 μm^3
same,"Cell Number, Fresh",[3]; NaCl 0.7%,4.27 10^9/ml
same,"Cell Number, % thawed compared with fresh",[3]; NaCl 0.8%,100.00%
same,"MCV, % thawed compared with fresh",[3]; NaCl 0.8%,118.89%
same,"Cell Number, Thawed",[3]; NaCl 0.8%,4.71 10^9/ml
same,"MCV, Thawed",[3]; NaCl 0.8%,107 μm^3
same,"Cell Number, Fresh",[3]; NaCl 0.8%,4.71 10^9/ml
same,"Cell Number, % thawed compared with fresh",[3]; NaCl 0.9% (Saline),75.50%
same,"MCV, % thawed compared with fresh",[3]; NaCl 0.9% (Saline),101.11%
same,"Cell Number, Thawed",[3]; NaCl 0.9% (Saline),3.42 10^9/ml
same,"MCV, Thawed",[3]; NaCl 0.9% (Saline),91 μm^3
same,"Cell Number, Fresh",[3]; NaCl 0.9% (Saline),4.53 10^9/ml
same,CD3 (%),[4]; Lyophilized with 0.47 mg/ml EGCG,80%
same,CD3 (%),[4]; Lyophilized with 1.89 mg/ml EGCG,81% and 83% and 82% and 78%
same,"RBC survival, 1B Rehydrated","[5]; frozen at 1,000° C./min, lyophilized, rehydrated with DDW",49.19%
same,"RBC survival, 1A Thawed","[5]; frozen at 1,000° C./min",84.53%
same,"RBC survival, 2A Thawed",[5],72.92%
same,"MCV, % of lyo from fresh",[6]; 1.03 mM EGCG,85.23%
same,"number of Cells, % of lyo cells from fresh",[6]; 1.03 mM EGCG,67.22%
same,"number of Cells, Fresh","[6]; 1.03 mM EGCG in 20% Dextran 40, 0.8% NaCl",4.21 10^9/ml
same,"MCV, Fresh",[6]; 1.03 mM EGCG,88 μm^3
same,% Hemolysis in Lyo cells,[6]; 1.03 mM EGCG,56.18%
same,"MCV, Lyo",[6]; 1.03 mM EGCG,75 μm^3
same,"number of Cells, Lyo",[6]; 1.03 mM EGCG,2.83 10^9/ml
same,"MCV, % of lyo from fresh",[6]; 4.12 mM EGCG,96.59%
same,"number of Cells, % of lyo cells from fresh",[6]; 4.12 mM EGCG,63.32%
same,"number of Cells, Fresh","[6]; 4.12 mM EGCG in 20% Dextran 40, 0.8% NaCl",4.58 10^9/ml
same,"MCV, Fresh",[6]; 4.12 mM EGCG,88 μm^3
same,% Hemolysis in Lyo cells,[6]; 4.12 mM EGCG,51.8%
same,"MCV, Lyo",[6]; 4.12 mM EGCG,85 μm^3
same,"number of Cells, Lyo",[6]; 4.12 mM EGCG,2.9 10^9/ml
same,hemolysis versus control (whole blood),[7]; NaCl concentrations above 0.6% (w/v),no significant difference
same,hemolysis versus control (whole blood),[7]; hypotonic environment (below 0.5% NaCl),lower hemolysis rates
same,proliferation index,[8],higher proliferation index
same,"viability, effect of EGCG concentration","[9]; FIG. 7, 0.412, 1.03, 2.06, 4.12 mM EGCG with 0.1M trehalose in PBS, after freeze thawing and after freeze drying",viability increased with EGCG concentration
same,Mambrane integrity (%),[9]; Fresh with 0.47 mg/ml EGCG,97.36 ± 2.2%
same,Mambrane integrity (%),[9]; Fresh with 1.89 mg/ml EGCG,90.01 ± 4.3%
same,Mambrane integrity (%),"[9]; Lyophilized with 0.47 mg/ml EGCG, rehydrated",55.1 ± 8.5% and 59.8 ± 1.4%
same,Mambrane integrity (%),"[9]; Lyophilized with 1.89 mg/ml EGCG, rehydrated",79.31 ± 8.8% and 83.62 ± 5.7% and 88.4 ± 3.2% and 88.03 ± 5.6%
"OC[C@H]1O[C@H](O[C@H]2O[C@H](CO)[C@@H](O)[C@H](O)[C@H]2O)[C@H](O)[C@@H](O)[C@@H]1O [Trehalose, reference compound]","RBC survival, 1A Thawed","[5]; frozen at 1,000° C./min",89.04%
same,"RBC survival, 2A Thawed",[5],93.24%
same,hemolysis,[10],causes significant hemolysis
